The record followed here is patent US20250205258A1 (priority 2022, published 2025).

In data set [1] the test system is human colorectal cancer cell line HCT116. The experiment in a line: CCK-8 in vitro antitumor activity (Effect Example 1). Conditions: HCT-116, HCT116, CCK-8, 72 hours. Format: cell-based. As for the experimental part:
(§1) The CCK-8 method described in “Methods for New Drug Pharmacological Research” (edited by Lv Qiujun, 2007: 242-243) was adopted.
(§2) The cell lines used were human lung adenocarcinoma cell line A549 and human colorectal cancer cell line HCT116, which were cryopreserved and passaged in the pharmacological laboratory of the Shanghai Institute of Pharmaceutical Industry. The culture medium was DMEM supplemented with 10% FBS and antibiotics.
(§3) Cells in logarithmic growth phase were seeded into 96-well plates at a density of 7×10^3 cells per well and incubated at 37° C. in a 5% CO2 environment for 24 hours to maintain a normal physiological pH.
(§4) After cell attachment, different concentrations of the test compounds, namely the bufalin derivatives 1a to 1l prepared in Example 1, as well as the compound doxorubicin, were added to triplicate wells, with 0.1% DMSO added as a control.
(§5) After 72 hours, 10 μL of CCK-8 cell counting kit was added to each well, and the plates were incubated again at 37° C. for 0.5 to 1 hour. The absorbance (OD) was read at 450 nm on a full-featured microplate reader (Biotek Synergy H2), and the concentration causing 50% cell growth inhibition (IC50) was calculated by simulation using GraphPad Prism software.

Data set [2] relates to human lung adenocarcinoma cell line A549. Described as above. Format: cell-based. Conditions: A549, CCK-8, 72 hours. The method, then: as §1, §2, §3, §4, §5
Data set [3] concerns human colon cancer cells HCT116. The experiment in a line: CCK-8 in vitro antitumor activity (Table 5). Particulars: for activity against HCT116 compared with doxorubicin: HCT116, versus doxorubicin; for IC50: Homo sapiens, HCT-116, HCT116, CCK-8, 72 hours. Format: cell-based. An excerpt:
(§6) Test Method: The CCK-8 method from “Methods for New Drug Pharmacological Research” edited by Lv Qiujun (2007: 242-243) was adopted.
(§7) Cell lines used: Human lung adenocarcinoma cells A549, human high-metastasis lung cancer cells 95D, and human colon cancer cells HCT116, which were cryopreserved and passaged by the Pharmacological Laboratory of the Shanghai Institute of Pharmaceutical Industry, were selected. The culture medium used was DMEM+10% FBS+antibiotics.
(§8) Cells in the logarithmic growth phase were taken and seeded into 96-well plates at a density of 7×10^3 cells per well. They were then incubated at 37° C. in a 5% CO2 environment for 24 hours to maintain a normal physiological pH.
(§9) After cell adhesion, different concentrations of the test compounds, namely the bufalin derivatives IVa to IVc prepared in Example 5, as well as the comparative compound doxorubicin, were added to three replicate wells, with 0.1% DMSO added to separate wells as a control.
(§10) After 72 hours, 10 μL of the CCK-8 cell counting kit was added to each well, and the plates were incubated again at 37° C. for 0.5 to 1 hour. The absorbance (OD) was read at 450 nm on a full-function microplate reader, Biotek Synergy H2, and the concentration causing 50% inhibition of cell growth (IC50) was calculated through simulation using GraphPad Prism software.

Data set [4] deals with Human lung adenocarcinoma cells A549. The experiment in a line: CCK-8 in vitro antitumor activity (Table 5). Format: cell-based. Particulars: A549, CCK-8, 72 hours.
Excerpt: as §6, §7, §8, §9, §10

Data set [5] deals with human high-metastasis lung cancer cells 95D. The experiment in a line: CCK-8 in vitro antitumor activity (Table 5). It is filed as cell-based. Particulars: for IC50: Homo sapiens, CCK-8, 72 hours.
Excerpt: as §6, §7, §8, §9, §10

In data set [6] the test system is HCT116 colorectal cancer cells xenografts. The experiment in a line: In vivo antitumor activity, HCT116 xenografts (Efficacy Example 3). Particulars: 1c 1 mg/kg iv × 7, qod, 5-Fluorouracil 15 mg/kg ip × 7; for Animal weight (After tumor removal): nude mice, HCT116 xenograft; for RTV (d18): relative tumor volume; for TGI (%): tumor volume inhibition. On the set-up: species or system BALB/C nude mice. The source says:
(§11) Experimental Method: The test animals were male SPF-grade BALB/C nude mice weighing 18 to 20 grams.
(§12) Experimental Procedure: Well-grown HCT116 colorectal cancer tumor masses were cut into uniform small pieces of approximately 3 mm in size under aseptic conditions. A cannula needle was used to inoculate one piece subcutaneously into the right axilla of each test mouse. Nine days after inoculation, the average tumor volume was approximately 113 to 119 mm^3. The animals were then regrouped based on tumor size, eliminating those with excessively large or small tumors, to ensure that the average tumor volume was consistent among the experimental groups. Administration by intraperitoneal injection was then initiated according to the following protocol, with a dosing volume of 0.2 mL per 20 grams of body weight:
(§13) From the 9th day of inoculation, the maximum tumor length (a, in mm) and the perpendicular maximum tumor width (b, in mm) were measured twice a week using a digital electronic caliper.
(§14) The tumor volume (TV) was calculated using the formula: TV=ab^2/2.
(§15) The relative tumor volume (RTV) was calculated using the formula: RTV=Vt/Vo, where Vo is the tumor volume measured at the time of cage distribution (i.e., day 1) and Vt is the tumor volume at each subsequent measurement.
(§16) On the 27th day after inoculation (day 19), the animals were euthanized, weighed, dissected to remove the tumor masses, and the tumor weights were measured.
This efficacy example employs the same test animals and experimental methods as Efficacy Example 2, with the only difference being that the average tumor volume was approximately 130 to 140 mm^3 on the 13th day after inoculation of HCT116 colorectal cancer tumor masses into the test mice. Subsequently, the animals were regrouped based on tumor size and administered the drug according to the same protocol as in Efficacy Example 2. The animals were euthanized on the 30th day after inoculation (i.e., day 18), and their body weights and tumor weights were measured after dissection.

The target of data set [7] is hERG potassium channel (Homo sapiens, UniProt Q12809). Particulars: test concentration 30 μM.
Procedure: Experimental Method: CHO-hERG cells were cultured in a 175 cm^2 flask until the cell density reached 60 to 80%. The culture medium was then removed, and the cells were washed once with 7 mL of Phosphate Buffered Saline (PBS). Subsequently, 3 mL of gentle cell detachment solution (Detachin) was added for digestion. Once the digestion was complete, 7 mL of culture medium was added to neutralize the solution. The cells were then centrifuged, and the supernatant was aspirated. To ensure a cell density of 2 to 5×10^6/mL, 5 mL of culture medium was added to resuspend the cells.
The entire process of forming single-cell high-impedance seals and whole-cell recording mode was automatically completed by the high-throughput, fully automated patch clamp system, namely the Qpatch instrument. After obtaining the whole-cell recording mode, the cells were clamped at −80 mV. Prior to applying a 5-second+40 mV depolarization stimulus, a 50-millisecond −50 mV prepulse was given, followed by a repolarization to −50 mV for 5 seconds, and then returning to −80 mV This voltage stimulus was applied every 15 seconds. After recording for 2 minutes, the extracellular solution was recorded for 5 minutes, and then the drug administration process began.
These stock solutions were then diluted 500-fold with extracellular solution to obtain the final concentrations required for testing.
Data set [8] concerns 95D cells. As to the kind of experiment: Cell scratch test, migration of 95D cells. It is filed as cell-based, human. Conditions: different concentrations, FIG. 1 and FIG. 2. As for the experimental part:
Test Method: Draw three parallel lines with a spacing of approximately 0.5 cm on the outer bottom surface of a 6-well plate. After evenly seeding the tumor cells 95D onto the plate (5×10^5 cells/well), create a cell scratch using a pipette. Wash the cells three times with phosphate-buffered saline (PBS) to remove the scratched-off cells. Then, add medium that has been pre-mixed with different concentrations of compound 1a or 1b.
Place the plate in a 37° C., 5% CO2 incubator for culturing. Sample the cells at 0, 12, 24, 36, and 48 hours, and take photographs under a microscope.
Using ImageJ software, measure the area and height of the scratch site. The average scratch width can be obtained by dividing the area by the height. Subtract the scratch width at the end of the experiment from the scratch width at the 0-hour point to obtain the distance of cell migration. Then, use this distance value to calculate the cell migration index (MI) according to the following formula:
Cell Migration Index(MI)=(Initial Blank Width−Blank Width at a Specific Time Point)/Initial Blank Width.

Data set [9] deals with HCT116 colorectal cancer cells xenografts. As to the kind of experiment: In vivo antitumor activity, HCT116 xenografts (Efficacy Example 2). Particulars: 1a 10 mg/kg ip × 7, qod, 5-Fluorouracil 15 mg/kg ip × 7. On the set-up: species or system BALB/C nude mice.
Excerpt: as §11, §12, §13, §14, §15, §16

Chain of hERG potassium channel (Q12809 whole entry): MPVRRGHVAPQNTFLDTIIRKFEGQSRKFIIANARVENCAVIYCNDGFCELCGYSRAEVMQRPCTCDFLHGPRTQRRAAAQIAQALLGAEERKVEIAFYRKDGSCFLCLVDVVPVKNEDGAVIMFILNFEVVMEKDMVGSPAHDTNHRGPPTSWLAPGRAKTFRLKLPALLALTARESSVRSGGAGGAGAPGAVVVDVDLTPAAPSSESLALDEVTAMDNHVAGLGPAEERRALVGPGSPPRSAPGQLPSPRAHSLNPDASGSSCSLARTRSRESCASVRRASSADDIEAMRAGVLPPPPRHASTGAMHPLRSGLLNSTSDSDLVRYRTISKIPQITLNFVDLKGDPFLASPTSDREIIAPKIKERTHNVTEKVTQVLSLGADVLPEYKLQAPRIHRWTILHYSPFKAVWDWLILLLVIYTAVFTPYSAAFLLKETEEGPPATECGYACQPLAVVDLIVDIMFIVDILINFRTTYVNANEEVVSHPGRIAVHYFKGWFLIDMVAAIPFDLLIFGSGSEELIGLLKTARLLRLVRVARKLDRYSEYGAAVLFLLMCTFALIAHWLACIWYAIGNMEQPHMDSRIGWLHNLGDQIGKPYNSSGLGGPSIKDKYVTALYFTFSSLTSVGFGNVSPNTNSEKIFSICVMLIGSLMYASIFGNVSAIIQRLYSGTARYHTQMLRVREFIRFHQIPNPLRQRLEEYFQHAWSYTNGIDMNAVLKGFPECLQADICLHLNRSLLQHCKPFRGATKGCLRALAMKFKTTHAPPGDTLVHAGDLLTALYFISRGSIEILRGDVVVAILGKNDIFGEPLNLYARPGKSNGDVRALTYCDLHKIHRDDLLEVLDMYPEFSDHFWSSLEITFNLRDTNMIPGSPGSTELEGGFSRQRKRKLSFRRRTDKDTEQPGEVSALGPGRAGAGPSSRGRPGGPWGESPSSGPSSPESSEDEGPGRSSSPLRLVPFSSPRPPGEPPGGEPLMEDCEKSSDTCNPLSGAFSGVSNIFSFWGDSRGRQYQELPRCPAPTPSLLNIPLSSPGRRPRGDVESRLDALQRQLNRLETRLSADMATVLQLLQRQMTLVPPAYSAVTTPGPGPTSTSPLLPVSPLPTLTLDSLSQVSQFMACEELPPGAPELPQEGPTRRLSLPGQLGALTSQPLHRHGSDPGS

With `C[C@]12CC[C@H](OC(=O)NC3CCN(CP(=O)(OC4CCCC4)OC4CCCC4)CC3)C[C@H]1CC[C@@H]1[C@@H]2CC[C@]2(C)[C@@H](c3ccc(=O)oc3)CC[C@]12O` [Compound 1g], the results for the IC50 in data set [1] and in data set [2] were 0.289 µM and 0.422 µM, respectively.
Turning to `C[C@]12CC[C@H](OC(=O)NC3CCN(CP(=O)(OC4CCC4)OC4CCC4)CC3)C[C@H]1CC[C@@H]1[C@@H]2CC[C@]2(C)[C@@H](c3ccc(=O)oc3)CC[C@]12O` [Compound 1f], the IC50 (as a rule, the midpoint of a concentration-inhibition curve) in [1] is 0.067 µM; in data set [2], 0.026 µM.
Consider `CO[C@H]1CN(C(=O)O[C@H]2CC[C@@]3(C)[C@H](CC[C@@H]4[C@@H]3CC[C@]3(C)[C@@H](c5ccc(=O)oc5)CC[C@]43O)C2)CC[C@H]1NCP(=O)(OC(C)C)OC(C)C` [Compound 1k], for which the figures for the IC50 in [1] and in data set [2] were 0.143 µM and 0.239 µM, respectively.
For `C[C@]12CC[C@H](OC(=O)NC3CCN(CP(=O)(OC4CCCCC4)OC4CCCCC4)CC3)C[C@H]1CC[C@@H]1[C@@H]2CC[C@]2(C)[C@@H](c3ccc(=O)oc3)CC[C@]12O` [Compound 1h], the figures for the IC50 in data set [1] and in data set [2] were 0.336 µM and 0.023 µM, respectively.
On to `CC(C)OP(=O)(CNC1CCN(C(=O)O[C@H]2CC[C@@]3(C)[C@H](CC[C@@H]4[C@@H]3CC[C@]3(C)[C@@H](c5ccc(=O)oc5)CC[C@]43O)C2)CC1)OC(C)C` [Compound 1j], for which the figures for the IC50 in data set [1] and in data set [2] were 0.02 µM and 0.216 µM, respectively.
`CC(C)OP(=O)(CNC1CCN(C(=O)O[C@H]2CC[C@@]3(C)[C@H](CC[C@@H]4[C@@H]3CC[C@]3(C)[C@@H](c5ccc(=O)oc5)CC[C@]43O)C2)CC1F)OC(C)C` (some centres unmarked) [Compound 1l]: the values for the IC50 in data set [1] and in data set [2] were 0.12 µM and 0.283 µM, respectively.
As for `CCOP(=O)(CCCN1CCN(C(=O)O[C@H]2CC[C@@]3(C)C(CCC4C3CC[C@]3(C)[C@@H](c5ccc(=O)oc5)CC[C@]43O)C2)CC1)OCC` (some centres unmarked) [IVc], the “activity against HCT116 compared with doxorubicin” value in [3] is “comparable activity against HCT116 to doxorubicin”. Further, the IC50 in data set [3] was determined as 0.027 µM; in data set [4] it was 0.011 µM; in data set [5] it was 0.072 µM. The “activity against 95D compared with doxorubicin” value in data set [5] (versus doxorubicin) is recorded as “superior activity against 95D compared to doxorubicin”.
Turning to `CC(C)OP(=O)(CN1CCN(C(=O)O[C@H]2CC[C@@]3(C)C(CCC4C3CC[C@]3(C)[C@@H](c5ccc(=O)oc5)CC[C@]43O)C2)CC1)OC(C)C` (some centres unmarked) [IVa], the IC50 in data set [3] was found to be 0.117 µM; in data set [4], 0.019 µM; in [5], 0.574 µM.
With `CCOP(=O)(CCCN1CCC(NC(=O)O[C@H]2CC[C@@]3(C)[C@H](CC[C@@H]4[C@@H]3CC[C@]3(C)[C@@H](c5ccc(=O)oc5)CC[C@]43O)C2)CC1)OCC` [Compound 1c], in [6], the “Animal weight (After tumor removal)” value is recorded as 21.02 ± 3.08 g, the “RTV (d18)” value turned out to be 6.56 ± 1.79 and the “TGI (%)” value turned out to be 63.69%. Also, the IC50 in data set [1] is less than 0.004 µM. For the same compound, the IC50 in [2] was less than 0.004 µM. Besides, the “Inhibition rate (hERG potassium channel)” value in [7] stood at 53.8±4.13%.
`CCOP(=O)(CN1CCC(NC(=O)O[C@H]2CC[C@@]3(C)[C@H](CC[C@@H]4[C@@H]3CC[C@]3(C)[C@@H](c5ccc(=O)oc5)CC[C@]43O)C2)CC1)OCC` [Compound 1d]: the 50% inhibitory concentration (IC50) in data set [1] was determined as 0.024 µM; in data set [2], 0.037 µM.
`CCCOP(=O)(CN1CCC(NC(=O)O[C@H]2CC[C@@]3(C)[C@H](CC[C@@H]4[C@@H]3CC[C@]3(C)[C@@H](c5ccc(=O)oc5)CC[C@]43O)C2)CC1)OCCC` [Compound 1e]: the IC50 amounted to 0.022 µM in [1] and 0.058 µM in data set [2].
In the case of `COc1cccc2c1C(=O)c1c(O)c3c(c(O)c1C2=O)C[C@@](O)(C(=O)CO)C[C@@H]3O[C@H]1C[C@H](N)[C@H](O)[C@H](C)O1` [Doxorubicin, reference compound], the IC50 in [3] was found to be 0.019 µM; in data set [4], 0.008 µM; in data set [5], 0.115 µM; in data set [1], 0.054 µM; in data set [2], 0.92 µM.
In the case of `CC(C)OP(=O)(CN1CC[C@@H](NC(=O)O[C@H]2CC[C@@]3(C)[C@H](CC[C@@H]4[C@@H]3CC[C@]3(C)[C@@H](c5ccc(=O)oc5)CC[C@]43O)C2)[C@H](O)C1)OC(C)C` [Compound 1i], the IC50 in data set [1] came to 0.008 µM; in [2], 0.015 µM.
Consider `CCOP(=O)(CN1CCN(C(=O)O[C@H]2CC[C@@]3(C)C(CCC4C3CC[C@]3(C)[C@@H](c5ccc(=O)oc5)CC[C@]43O)C2)CC1)OCC` (some centres unmarked) [IVb], for which the “activity against HCT116 compared with doxorubicin” value in [3] is recorded as “comparable activity against HCT116 to doxorubicin”. Further, the values for the IC50 in data set [3], in data set [4] and in data set [5] were 0.04 µM, 0.018 µM and 0.262 µM, respectively.
Turning to `CCOP(=O)(CCN1CCC(NC(=O)O[C@H]2CC[C@@]3(C)[C@H](CC[C@@H]4[C@@H]3CC[C@]3(C)[C@@H](c5ccc(=O)oc5)CC[C@]43O)C2)CC1)OCC` [Compound 1b], the “inhibitory effect on the migration of 95D cells” value in [8] was “excellent anti-tumor migration effects”. Besides, the IC50 in data set [1] and in data set [2] was less than 0.004 µM in each case.
As to `O=c1[nH]cc(F)c(=O)[nH]1` [5-Fluorouracil, reference compound], the “Animal weight (After tumor removal)” value was 21.84 ± 1.52 g in data set [6] and 19.20 ± 1.84 g in [9] (nude mice, HCT116 xenograft). For the same compound, the “RTV (d18)” value in data set [6] was 7.35 ± 1.55; in [9] (relative tumor volume, d18) it was 5.52 ± 0.81. Besides, the “TGI (%)” value was 59.37% in data set [6] and 56.16% in [9] (tumor volume inhibition).
